From US20060293381A1, “Fungicidal effect by regulating signal transduction pathways” (priority 2005, published 2006)
Entries after “also recorded” stand apart in the source; their conditions may differ. Read-outs that look alike come from different tables or passages of the source.

What was measured:
[1] = test system: C. neoformans; format: cell-based, Cryptococcus neoformans
Method: (§1) FIG. 1: [A] Treatment of multiple strains of C. neoformans serotype A H99 with fludioxonil (1 ug ml^−1 and 10 ug ml^−1), calcineurin inhibitor FK506, and FK506+Fludioxonil (1 ug ml^−1). [B] Measurement of cell density of multiple strains of C. neoformans representing relative cell growth after incubation of C. neoformans in culture for 72 hours in various fludioxonil concentrations. The following serotype A strains were used for this assay: WT (H99) (♦), and cna1Δ (▴), hog1Δ (□) and cna1Δ hog1Δ (∘) mutant strains. [C] Measurement of WT H99, hog1Δ, and cna1Δ mutants grown for 48 hours exposed to disks containing 10 ug (Fludiox10), 50 ug (Fludiox50), or 100 ug (Fludiox100) of fludioxonil; 2 ug (FK5062) or 20 ug (FK50620) of FK506; 5 ul of 100% ethanol (ETOH) and dimethyl sulfoxide (DMSO).
Additionally, the fractional inhibitory concentration (FIC) was calculated to determine the FIC index, of which a value <1·0 denotes a synergistic interaction.

[2] = test system: C. neoformans; experiment: Microscopic observation of cell morphology after fludioxonil; format: cell-based, Cryptococcus neoformans
Method: (§2) FIG. 6: [A] Measurements of morphological changes in response to fludioxonil treatment (10 ug ml^−1 for 48 hours) in serotype A H99 WT [A-b], cna1Δ [A-c], and hog1Δ [A-d]. As a control, serotype A H99 WT was grown without fludioxonil [A-a]. Cells were then observed by microscopy (bar=20 um). [B] Measurements of glycerol content in cell extracts in response to fludioxonil treatment in serotype A WT strain H99, cna1Δ, hog1Δ, and the serotype D WT strain JEC21. Cells were grown to mid-exponential phase and then incubated in 10 ug fludioxonil ml^−1 for the time indicated. Glycerol content in cell extracts was measured by a UV-glycerol assay procedure and normalized to dry cell weight. Two individual experiments were performed and standard deviations are presented as error bars.
We microscopically observed cells after exposure to fludioxonil. […] As expected, the morphology of JEC21 cells was not affected by fludioxonil.

[3] = test system: S. cerevisiae; experiment: Fungal growth on agar containing fludioxonil (control species); format: cell-based
Method: FIG. 2: Differential fungicidal sensitivity between C. neoformans serotype A strain H99 and serotype D strain JEC21. WT indicates wildtype cells; hog1 indicates a mutant Hog1 gene hog1Δ. S. cerevisiae is used as a control.
(§3) Two C. neoformans serotypes were tested for sensitivity to fludioxonil at 1 μg/ml and 10 μg/ml to determine whether fludioxonil sensitivity is differentially regulated between the two strains and if it is controlled by the HOG pathway. […] S. cerevisiae is resistant to fludioxonil and was used as a control. Thus differential sensitivity to fludioxonil was seen between the two WT serotypes. The hog1Δ mutation in the serotype D strain JEC21 was resistant to fludioxonil, similar to WT JEC21 (FIG. 2). The hog1Δ mutation in the serotype A strain H99 background, however, was resistant to fludioxonil, unlike WT H99 (FIG. 2). This indicates a critical role for the Hog1 pathway in fludioxonil sensitivity.

[4] = test system: C. neoformans; experiment: Glycerol content in cell extracts (UV-glycerol assay); format: cell-based, Cryptococcus neoformans
Method: as §2
We measured the glycerol content in C. neoformans after fludioxonil treatment for 1 and 3 hours (FIG. 6B). […] Increased intracellular glycerol levels may trigger non-physiological levels of water influx into the cell, resulting in cell swelling and growth inhibition. […] Alternatively, the cna1Δ mutant cells could be rapidly killed by Hog1 activation prior to accumulating glycerol, because fludioxonil has a fungicidal effect on the cna1Δ mutant (Table 1).

[5] = test system: C. neoformans; experiment: Minimal fungicidal concentration (MFC), NCCLS criteria; format: cell-based; details: Cryptococcus neoformans; WT strain; fludioxonil alone
Excerpt: To determine whether fludioxonil is fungicidal or fungistatic to C. neoformans, minimal fungicidal concentrations (MFCs) were investigated in accordance with the NCCLS criteria (Table 2).

[6] = test system: C. neoformans; experiment: Fungal growth on YPD agar containing the drug; format: cell-based, Cryptococcus neoformans
Method: To investigate whether C. neoformans is sensitive to fludioxonil, fungal growth was tested on YPD agar containing the drug. […] To elucidate the role of the HOG pathway in fludioxonil sensitivity, we tested the sensitivity of hog1Δ and pbs2Δ mutants that had been constructed before (Y S Bahn et al., Mol. Biol. Cell. (2005) 16: 2285-2300). […] To examine whether phosphorylation and kinase activity of Hog1 MAPK are required to confer fludioxonil sensitivity, we tested the sensitivity of cells expressing site-directed mutants of Hog1 at the phosphorylation sites (hog1+HOG1^T171A+Y173A) or the catalytic site (hog1+HOG1^K49S+K50N) (FIG. 1A).
as §3
To determine whether the differential fludioxonil sensitivity observed between the serotype A strain H99 and the serotype D strain JEC21 results from serotype- or strain-specific differences, fludioxonil sensitivity in multiple serotype A and D clinical and environmental strains was investigated. The Hog1 phosphorylation pattern after a 1 hour exposure to fludioxonil was monitored.

[7] = test system: Hog1 MAPK; experiment: Hog1 phosphorylation pattern by Western Blot; format: cell-based, Cryptococcus neoformans
Excerpt: (§4) FIG. 3: Measurements of Hog1 MAPK activation by rapid dephosphorylation in response to fludioxonil in C. neoformans. Measurements of phosphorylated Hog1 (P-Hog1) and unphosphorylated Hog1 (Hog1) are shown in C. neoformans serotype A strain H99 (H99 WT), H99 cna1Δ, serotype D strain JEC21 (JEC21 WT), and S. cerevisiae. The dual phosphorylation status of Hog1 (T171 and Y173) was monitored using antibody specific for dual phosphorylation of p38 MAPK (P-Hog1). The same blot was stripped and then probed with polyclonal anti-Hog1 antibody as a loading control (Hog1).
FIG. 4: Measurements of fludioxonil sensitivity and Hog1 phosphorylation patterns in response to fludioxonil in various clinical and environmental serotype A [A] and serotype D [B] isolates. Measurements of phosphorylated Hog1 (P-Hog1) and unphosphorylated Hog1 (Hog1) were done using Western Blot analysis.
(§5) To determine how Hog1 is regulated in response to fludioxonil in C. neoformans, Hog1 phosphorylation patterns were monitored by Western Blot analysis in response to fludioxonil. When the serotype A strain H99 was exposed to 1 or 10 ug ml^−1 fludioxonil ml^−1, Hog1 was dephosphorylated within 15 minutes and its dephosphorylation status was maintained for 3 hours (FIG. 3). […] On the other hand, in the serotype D strain JEC21 Hog1 was only slightly phosphorylated under normal conditions, only minimally further phosphorylated if at all after 15 minutes of exposure to fludioxonil, and subsequently maintained in an unphosphorylated state for up to 3 hours (FIG. 3). In contrast, Hog1 was rapidly phosphorylated in response to osmotic shock in strain JEC21.

[8] = test system: C. neoformans; experiment: NCCLS drug susceptibility assay in liquid medium (MIC80, FIC index, cell density); format: cell-based, Cryptococcus neoformans
Method: as §1
To quantitatively measure fludioxonil sensitivity, we performed drug susceptibility assays according to NCCLS criteria using a range of fludioxonil concentrations (5 ng ml^−1 to 10 ug ml^−1) to determine the minimum inhibitory concentration (MIC). In this assay, the MIC80 of fludioxonil for the WT strain was <5 ug ml^−1 whereas the MIC80 for the cna1Δ mutant was <100 ng ml^−1 (FIG. 1B and Table 1).

[9] = test system: Hog1; experiment: Hog1 phosphorylation pattern by Western Blot; format: cell-based; details: S. cerevisiae
Excerpt: as §4, §5

[10] = WT strain H99, fludioxonil disk 100 ug
[11] = serotype A strain H99, 1 or 10 ug ml^−1 fludioxonil

With `C=CC[C@@H]1/C=C(\C)C[C@H](C)C[C@H](OC)[C@H]2O[C@@](O)(C(=O)C(=O)N3CCCC[C@H]3C(=O)O[C@H](/C(C)=C/[C@@H]3CC[C@@H](O)[C@H](OC)C3)[C@H](C)[C@@H](O)CC1=O)[C@H](C)C[C@@H]2OC` [FK506] the “halo / growth inhibition around disk” value [1, 10] was “not inhibited”.
In the case of `N#Cc1c[nH]cc1-c1cccc2c1OC(F)(F)O2` [fludioxonil, 4-(2,2-difluoro-1,3-benzodioxol-4-yl)pyrrole-3-carbonitrile], the cell morphology ([2]; JEC21 cells) is reported as “not affected”, the cell morphology ([2]; WT H99, 10 ug ml^−1 for 48 hours) is reported as “some cells were swollen, and interestingly were often attached to each other” and the cell morphology ([2]; cna1Δ mutant, 10 ug ml^−1 for 48 hours) is reported as “even more severe cytokinesis defect”. The cell morphology ([2]; hog1Δ mutant, 10 ug ml^−1 for 48 hours) was “no swollen morphology or defects in cell division”, the “growth on agar containing drug” value [3] was “resistant” and the glycerol content ([4]; WT strain H99, 10 ug fludioxonil ml^−1, 1 and 3 hours) was “increased after 1 hour exposure, and to an even greater extent after 3 hour incubation”. For the same compound, the glycerol content ([4]; cna1Δ mutant, 10 ug fludioxonil ml^−1, 1 and 3 hours) was “increased following 1 hour treatment with fludioxonil but accumulation levels at 3 hours were lower than those of the WT”, the glycerol content ([4]; hog1Δ mutant, 10 ug fludioxonil ml^−1, 1 and 3 hours) was “no increase in glycerol” and the glycerol content ([4]; serotype D strain JEC21, 10 ug fludioxonil ml^−1) was “little or no glycerol”. The MFC [5] was > 10 µg/mL, the fludioxonil sensitivity ([6]; 12 independently derived AD hybrid strains) was “resistance similar to the parental strain JEC171” and the “growth on agar containing drug” value ([6]; WT serotype D strain JEC21, 1 μg/ml and 10 μg/ml) was “complete resistance”. For the same compound, the “growth on agar containing drug” value ([6]; cna1Δ and cnb1Δ mutants (H99 background)) was “hypersensitivity”, the “growth on agar containing drug” value ([6]; hog1+HOG1^T171A+Y173A and hog1+HOG1^K49S+K50N site-directed mutants) was “as resistant to fludioxonil as the hog1Δ mutant” and the “growth on agar containing drug” value ([6]; hog1Δ mutant (H99 background)) was “complete resistance; also recorded: resistant”. For the same compound, the “growth on agar containing drug” value ([6]; hog1Δ mutation in serotype D strain JEC21) was “resistant”, the fludioxonil sensitivity ([6]; mpk1Δ mutant) was “hypersensitivity” and the “growth defect in response to fludioxonil with osmotic stabilizer” value ([6]; mpk1Δ, mkk1Δ, bck1Δ mutants, supplementation with 1M sorbitol) was “partially rescued the growth defect”. The fludioxonil sensitivity ([6]; mutants lacking MKK1 and BCK1 genes) was “hypersensitivity”, the fludioxonil sensitivity ([6]; parental serotype A H99 (ura5)) was “sensitivity” and the fludioxonil sensitivity ([6]; parental serotype D JEC171 (ade2 lys2)) was “resistance”. For the same compound, the “growth on agar containing drug” value ([6]; pbs2Δ mutant (H99 background)) was “complete resistance”, the “strains sensitive to fludioxonil” value ([6]; serotype A clinical and environmental strains) was 8 of 10 and the fludioxonil sensitivity ([6]; serotype A strains IN-38 and UG-20020, serotype D strains NIH433, JEC21, MMRL757) was “clear resistance”. For the same compound, the “growth on agar containing drug” value ([6]; serotype A wild-type (WT) strain H99, fludioxonil 1 and 10 ug ml^−1) was “severely inhibited growth; also recorded: sensitivity”, the “strains sensitive to fludioxonil” value ([6]; serotype D clinical and environmental strains) was 6 of 9 and the Hog1 phosphorylation pattern ([7]; cna1Δ mutant, 1 ug or 10 ug fludioxonil ml^−1) was “almost identical to that observed in the wild-type strain”. For the same compound, the “Hog1 activation in response to fludioxonil” value (“Hog1 activation in response” for short) ([7]; resistant clinical/environmental strains, 1 hour incubation) was “not activated”, the “Hog1 dephosphorylation status maintained” value [7, 11] was 3 h and the “time to Hog1 dephosphorylation” value [7, 11] was ≤ 15 min. For the same compound, the “Hog1 activation in response” value ([7]; serotype D strain JEC21) was “only minimally activated, if at all”, the MIC80 ([8]; Cryptococcus neoformans, WT strain, read-out: MIC80) was < 5 µg/mL and the “fludioxonil sensitivity (cell growth, FIG. 1B)” value ([8]; cna1Δ hog1Δ double mutant) was “complete resistance”. For the same compound, the MIC80 ([8]; cna1Δ mutant) was < 0.1 µg/mL, the “growth in liquid culture” value ([8]; hog1Δ and cna1Δ hog1Δ mutants, even with 10 ug fludioxonil ml^−1) was “modest reduction of growth, but still showed robust resistance” and the “Hog1 activation in response” value [9] was “completely inactive”. For the same compound, the “halo / growth inhibition around disk” value [1, 10] was “only modest growth inhibition” and the “halo / growth inhibition around disk” value ([1]; cna1Δ strain, disks with 10, 50, or 100 ug fludioxonil) was “large haloes”.
